Each structure is given as a SMILES string.

For the molecule `NS(=O)(=O)NCc1ccccc1` (hydrate or solvate) [Example 5, Benzylsulfamide], the melting point (commonly the temperature, or range, at which the solid turns liquid) is 102 to 104 °C.

These data come from patent publication US20090176996A1, “PROCESS FOR THE PREPARATION OF SULFAMIDE DERIVATIVES” (priority 2008, published 2009).
